According to patent publication US20180251431A1 (VERTEX PHARMACEUTICALS INCORPORATED, priority 2016, published 2018):
pIC50: −log10 of the molar value.

tested on: HEK293 cells; assay: HEK293 VLCFA-LPC IC50 determination (13C-labeled C26:0 LPC by UHPLC/MS); format: cell-based, human; settings: Homo sapiens, HEK293, 48 h, average of one or more replicates; 13C-labeled C26:0 LPC, 48 hours; read-out: Average HEK293 IC50
In short: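 Suspension HEK293 cells (final 0.5 million/mL after mixing with equal volume) incubated 48 hours with compound plus 13C-acetate (1.0 mg/mL in added media), shaking at 37° C. Lipids extracted with hexane/isopropanol or methanol, C13:0 LPC standard. UHPLC/MS of 13C-labeled C26:0 LPC (638.500/104.100 m/z); IC50 by four-parameter fit.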

SMILES | pIC50
O=C(Nc1ccn(-c2ccncc2Cl)n1)C1(c2ccccc2F)CC1 [Compound 333, N-[1-(3-chloro-4-pyridyl)pyrazol-3-yl]-1-(2-fluorophenyl)cyclopropanecarboxamide] | 6.02
COc1nccc(-n2ccc(NC(=O)C3(c4ccccc4F)CC3)n2)c1C [Compound 340, 1-(2-fluorophenyl)-N-[1-(2-methoxy-3-methyl-4-pyridyl)pyrazol-3-yl]cyclopropanecarboxamide] | < 5.30
COc1nccc(-n2ccc(NC(=O)C3(c4ccccc4F)CC3)n2)c1C#N [Compound 336, N-[1-(3-cyano-2-methoxy-4-pyridyl)pyrazol-3-yl]-1-(2-fluorophenyl)cyclopropanecarboxamide] | < 5.30
Cc1cc(-n2ccc(NC(=O)C3(c4ccccc4F)CC3)n2)cc(C#N)n1 [Compound 346, N-[1-(2-cyano-6-methyl-4-pyridyl)pyrazol-3-yl]-1-(2-fluorophenyl)cyclopropanecarboxamide] | < 5.30
O=C(Nc1nn(-c2ccnc(F)c2)cc1F)C1(c2ccccc2F)CC1 [Compound 365, N-(4-fluoro-1-(2-fluoropyridin-4-yl)-1H-pyrazol-3-yl)-1-(2-fluorophenyl)cyclopropane-1-carboxamide] | 6.39
CN(C(=O)Cc1ccccc1F)c1ccn(-c2ccccc2)n1 [Compound 362, 2-(2-fluorophenyl)-N-methyl-N-(1-phenyl-1H-pyrazol-3-yl)acetamide] | < 5.30
COc1nccc(-n2ccc(NC(=O)C3(c4ccccc4F)CC3)n2)n1 [Compound 330, 1-(2-fluorophenyl)-N-[1-(2-methoxypyrimidin-4-yl)pyrazol-3-yl]cyclopropanecarboxamide] | 6.59
N#Cc1ccc(-n2ccc(NC(=O)C3(c4ccccc4F)CC3)n2)cn1 [Compound 326, N-[1-(6-cyano-3-pyridyl)pyrazol-3-yl]-1-(2-fluorophenyl)cyclopropanecarboxamide] | < 5.30
O=C(Nc1ccn(-c2ncc(F)cc2F)n1)C1(c2ccccc2F)CC1 [Compound 391, N-(1-(3,5-difluoropyridin-2-yl)-1H-pyrazol-3-yl)-1-(2-fluorophenyl)cyclopropane-1-carboxamide] | 6.72
Nc1ccc(-n2ccc(NC(=O)C3(c4ccccc4F)CC3)n2)cc1F [Compound 387, N-[1-(4-amino-3-fluoro-phenyl)pyrazol-3-yl]-1-(2-fluorophenyl)cyclopropanecarboxamide] | 5.96

same assay, conditions: Homo sapiens, HEK293, HEK293 cells; average of one or more replicates; read-out: Average HEK293 IC50

SMILES | pIC50
Cc1cc(-n2ccc(NC(=O)C3(c4ccc(F)cc4)CC3)n2)ccn1 [Compound 108, 1-(4-fluorophenyl)-N-[1-(2-methyl-4-pyridyl)pyrazol-3-yl]cyclopropanecarboxamide] | 6.11
O=C(Cc1ccncc1)Nc1ccn(-c2ccccc2)n1 [Compound 38, N-(1-phenylpyrazol-3-yl)-2-(4-pyridyl)acetamide] | < 5.30
Cc1cc(-n2ccc(NC(=O)Cc3ccccc3)n2)ccn1 [Compound 109, N-[1-(2-methyl-4-pyridyl)pyrazol-3-yl]-2-phenyl-acetamide] | < 5.00
O=C(Nc1ccn(-c2ncccc2F)n1)C1(c2ccccc2)CC1 [Compound 82, N-[1-(3-fluoro-2-pyridyl)pyrazol-3-yl]-1-phenyl-cyclopropanecarboxamide] | 6.72
O=C(Cn1cccn1)Nc1ccn(-c2ccnc(F)c2)n1 [Compound 283, N-[1-(2-fluoro-4-pyridyl)pyrazol-3-yl]-2-pyrazol-1-yl-acetamide] | < 5.30
O=C(Nc1ccn(-c2nccs2)n1)C1(c2ccccc2)CC1 [Compound 81, 1-phenyl-N-(1-thiazol-2-ylpyrazol-3-yl)cyclopropanecarboxamide] | 7.96
O=C(Nc1ccn(-c2cccc(C(F)(F)F)c2)n1)C1(c2ccccc2)CC1 [Compound 159, 1-phenyl-N-[1-[3-(trifluoromethyl)phenyl]pyrazol-3-yl]cyclopropanecarboxamide] | < 5.30
Nc1cc(-n2ccc(NC(=O)C3(c4ccccc4F)CC3)n2)ccn1 [Compound 393, N-[1-(2-amino-4-pyridyl)pyrazol-3-yl]-1-(2-fluorophenyl)cyclopropanecarboxamide] | 5.72
COc1cc(-n2ccc(NC(=O)C3(c4ncccc4F)CC34CC4)n2)ccn1 (stereo not shown) [Compound 527, 2-(3-fluoro-2-pyridyl)-N-[1-(2-methoxy-4-pyridyl)pyrazol-3-yl]spiro[2.2]pentane-2-carboxamide] | < 5.70
CC1(C)CC1(C(=O)Nc1ccn(-c2ccc(F)c(F)c2)n1)c1ncccc1F (stereo not shown) [Compound 514, N-[1-(3,4-difluorophenyl)pyrazol-3-yl]-1-(3-fluoro-2-pyridyl)-2,2-dimethyl-cyclopropanecarboxamide] | 5.74
O=C(Cc1nccs1)Nc1ccn(-c2ccnc(F)c2)n1 [Compound 307, N-[1-(2-fluoro-4-pyridyl)pyrazol-3-yl]-2-thiazol-2-yl-acetamide] | < 5.70
O=C(Nc1ccn(-c2ccnc(F)c2)n1)C1(c2ccccn2)CC1 [Compound 223, N-[1-(2-fluoro-4-pyridyl)pyrazol-3-yl]-1-(2-pyridyl)cyclopropanecarboxamide] | 7.15
O=C(Cc1ccccc1F)Nc1ccn(-c2ccnc(Cl)c2)n1 [Compound 4, N-[1-(2-chloro-4-pyridyl)pyrazol-3-yl]-2-(2-fluorophenyl)acetamide] | 6.19
O=C(Cc1ccccc1)Nc1ccn(-c2cncc(F)c2)n1 [Compound 205, N-[1-(5-fluoro-3-pyridyl)pyrazol-3-yl]-2-phenyl-acetamide] | 6.14
O=C(Nc1ccn(-c2ncccn2)n1)C1(c2ccccc2F)CC1 [Compound 240, 1-(2-fluorophenyl)-N-(1-pyrimidin-2-ylpyrazol-3-yl)cyclopropanecarboxamide] | 5.36
O=C(Cc1c(F)cccc1F)Nc1ccn(-c2ccccc2)n1 [Compound 61, 2-(2,6-difluorophenyl)-N-(1-phenylpyrazol-3-yl)acetamide] | 7.19
O=C(Nc1ccn(-c2ccnc(F)c2)n1)C1(c2ccccc2Cl)CC1 [Compound 251, 1-(2-chlorophenyl)-N-[1-(2-fluoro-4-pyridyl)pyrazol-3-yl]cyclopropanecarboxamide] | 6.96

SMILES | pIC50
CN(C)c1ccc(-n2ccc(NC(=O)C3(c4ccccc4F)CC3)n2)cn1 [Compound 394, N-[1-[6-(dimethylamino)-3-pyridyl]pyrazol-3-yl]-1-(2-fluorophenyl)cyclopropanecarboxamide] | < 5.30
O=C(Cc1ccccc1F)Nc1ccn(-c2cccc(C(F)(F)F)c2)n1 [Compound 158, 2-(2-fluorophenyl)-N-[1-[3-(trifluoromethyl)phenyl]pyrazol-3-yl]acetamide] | 5.54
CC1CC1(C(=O)Nc1ccn(-c2ccc(F)cc2)n1)c1ncccc1F (stereo not shown) [Compound 505, N-[1-(4-fluorophenyl)pyrazol-3-yl]-1-(3-fluoro-2-pyridyl)-2-methyl-cyclopropanecarboxamide] | 6.96
O=C(Nc1ccn(-c2ccccc2)n1)C1(c2ccccc2)CC1(Cl)Cl (stereo not shown) [Compound 141, 2,2-dichloro-1-phenyl-N-(1-phenylpyrazol-3-yl)cyclopropanecarboxamide] | 6.47
O=C(Cc1cc(F)ccc1F)Nc1ccn(-c2ccccc2)n1 [Compound 59, 2-(2,5-difluorophenyl)-N-(1-phenylpyrazol-3-yl)acetamide] | 6.60
CCOc1ccc(C2(C(=O)Nc3ccn(-c4ccnc(F)c4)n3)CC2)cc1 [Compound 246, 1-(4-ethoxyphenyl)-N-[1-(2-fluoro-4-pyridyl)pyrazol-3-yl]cyclopropanecarboxamide] | 5.55
O=C(Nc1ccn(-c2ccncn2)n1)C1(c2ccccc2)CC1 [Compound 207, 1-phenyl-N-(1-pyrimidin-4-ylpyrazol-3-yl)cyclopropanecarboxamide] | 7.44
O=C(Cc1ccc(F)c(C(F)(F)F)c1)Nc1ccn(-c2ccccc2)n1 [Compound 71, 2-[4-fluoro-3-(trifluoromethyl)phenyl]-N-(1-phenylpyrazol-3-yl)acetamide] | < 5.30
O=C(Nc1ccn(-c2cncs2)n1)C1(c2ccccc2F)CC1 [Compound 217, 1-(2-fluorophenyl)-N-(1-thiazol-5-ylpyrazol-3-yl)cyclopropanecarboxamide] | 7.08
Cc1cccc(C2(C(=O)Nc3ccn(-c4ccccc4)n3)CC2)c1 [Compound 32, 1-(m-tolyl)-N-(1-phenylpyrazol-3-yl)cyclopropanecarboxamide] | 6.19
O=C(Nc1ccn(-c2ccccc2F)n1)C1(c2ccccc2F)CC1 [Compound 186, 1-(2-fluorophenyl)-N-(1-(2-fluorophenyl)-1H-pyrazol-3-yl)cyclopropane-1-carboxamide] | 6.85
O=C(Nc1ccn(-c2ccncn2)n1)C1(c2ccncc2F)CC1 [Compound 278, 1-(3-fluoro-4-pyridyl)-N-(1-pyrimidin-4-ylpyrazol-3-yl)cyclopropanecarboxamide] | < 5.30
O=C(Cc1ccccc1)Nc1ccn(-c2ccc(Cl)cc2)n1 [Compound 134, N-[1-(4-chlorophenyl)pyrazol-3-yl]-2-phenyl-acetamide] | < 5.30
O=C(Cc1ccccc1F)Nc1ccn(-c2ccc(F)c(Cl)c2)n1 [Compound 199, N-[1-(3-chloro-4-fluoro-phenyl)pyrazol-3-yl]-2-(2-fluorophenyl)acetamide] | < 5.30
CC(C)C(C(=O)Nc1ccn(-c2ccccc2)n1)c1ccccc1 (stereo not shown) [Compound 31, 3-methyl-2-phenyl-N-(1-phenylpyrazol-3-yl)butanamide] | < 5.70
CC1CC1(C(=O)Nc1ccn(-c2ccc(F)c(F)c2)n1)c1ncccc1F (stereo not shown) [Compound 506, N-[1-(3,4-difluorophenyl)pyrazol-3-yl]-1-(3-fluoro-2-pyridyl)-2-methyl-cyclopropanecarboxamide] | 6.66
